Measured values taken from ChEMBL document CHEMBL4145553, “Design, synthesis, and biological evaluation of novel amide and hydrazide based thioether analogs targeting Histone deacteylase (HDAC) enzymes” (Eur J Med Chem, 2018).
The source made the active and inactive calls. No cut-off for these calls is given here.

Assays:
UACC-257 [1] = assay: Growth inhibition of human UACC257 cells assessed as cell growth at 10^-8 M incubated for 48 hrs by sulforhodamine B assay relative to control; type: functional; conditions: UACC-257, 48 h, read-out: Activity
A498 = assay: Growth inhibition of human A498 cells assessed as cell growth at 10^-8 M incubated for 48 hrs by sulforhodamine B assay relative to control; type: functional; conditions: A498, 48 h, read-out: Activity
CAKI-1 = assay: Growth inhibition of human Caki1 cells assessed as cell growth at 10^-8 M incubated for 48 hrs by sulforhodamine B assay relative to control; type: functional; conditions: CAKI-1, 48 h, read-out: Activity
NCI-H322M = assay: Growth inhibition of human NCI-H322M cells assessed as cell growth at 10^-7 M incubated for 48 hrs by sulforhodamine B assay relative to control; type: functional; conditions: read-out: Activity
NCI-H460 = assay: Growth inhibition of human NCI-H460 cells assessed as cell growth at 10^-7 M incubated for 48 hrs by sulforhodamine B assay relative to control; type: functional; conditions: NCI-H460, 48 h, read-out: Activity
HCT-116 = assay: Growth inhibition of human HCT116 cells assessed as cell growth at 10^-7 M incubated for 48 hrs by sulforhodamine B assay relative to control; type: functional; conditions: HCT-116, 48 h, read-out: Activity
KM12 = assay: Growth inhibition of human KM12 cells assessed as cell growth at 10^-7 M incubated for 48 hrs by sulforhodamine B assay relative to control; type: functional; conditions: KM12, 48 h, read-out: Activity
IGROV-1 = assay: Growth inhibition of human IGROV1 cells assessed as cell growth at 10^-7 M incubated for 48 hrs by sulforhodamine B assay relative to control; type: functional; conditions: IGROV-1, 48 h, read-out: Activity
DU-145 [2] = assay: Growth inhibition of human DU145 cells assessed as cell growth at 10^-7 M incubated for 48 hrs by sulforhodamine B assay relative to control; type: functional; conditions: DU-145, 48 h, read-out: Activity
HL-60(TB) = assay: Growth inhibition of human HL-60(TB) cells assessed as cell growth at 10^-6 M incubated for 48 hrs by sulforhodamine B assay relative to control; type: functional; conditions: HL-60, 48 h, read-out: Activity
RPMI-8226 = assay: Growth inhibition of human RPMI8226 cells assessed as cell growth at 10^-6 M incubated for 48 hrs by sulforhodamine B assay relative to control; type: functional; conditions: RPMI-8226, 48 h, read-out: Activity
UACC-62 [3] = assay: Growth inhibition of human UACC62 cells assessed as cell growth at 10^-6 M incubated for 48 hrs by sulforhodamine B assay relative to control; type: functional; conditions: UACC-62, 48 h, read-out: Activity
OVCAR-3 = assay: Growth inhibition of human OVCAR3 cells assessed as cell growth at 10^-6 M incubated for 48 hrs by sulforhodamine B assay relative to control; type: functional; conditions: OVCAR-3, 48 h, read-out: Activity
786-0 = assay: Growth inhibition of human 786-0 cells assessed as cell growth at 10^-6 M incubated for 48 hrs by sulforhodamine B assay relative to control; type: functional; conditions: 786-0, 48 h, read-out: Activity
DU-145 [4] = assay: Growth inhibition of human DU145 cells assessed as cell growth at 10^-6 M incubated for 48 hrs by sulforhodamine B assay relative to control; type: functional; conditions: DU-145, 48 h, read-out: Activity
CCRF-CEM = assay: Growth inhibition of human CCRF-CEM cells assessed as cell growth at 10^-5 M incubated for 48 hrs by sulforhodamine B assay relative to control; type: functional; conditions: read-out: Activity
OVCAR-5 = assay: Growth inhibition of human OVCAR5 cells assessed as cell growth at 10^-5 M incubated for 48 hrs by sulforhodamine B assay relative to control; type: functional; conditions: OVCAR-5, 48 h, read-out: Activity
UO-31 = assay: Growth inhibition of human UO31 cells assessed as cell growth at 10^-5 M incubated for 48 hrs by sulforhodamine B assay relative to control; type: functional; conditions: UO-31, 48 h, read-out: Activity
MDA-MB-231 = assay: Growth inhibition of human MDA-MB-231 cells assessed as cell growth at 10^-5 M incubated for 48 hrs by sulforhodamine B assay relative to control; type: functional; conditions: MDA-MB-231, 48 h, read-out: Activity
SK-MEL-2 = assay: Growth inhibition of human SK-MEL-2 cells assessed as cell growth at 10^-4 M incubated for 48 hrs by sulforhodamine B assay relative to control; type: functional; conditions: SK-MEL-2, 48 h, read-out: Activity
UACC-257 [5] = assay: Growth inhibition of human UACC257 cells assessed as cell growth at 10^-4 M incubated for 48 hrs by sulforhodamine B assay relative to control; type: functional; conditions: UACC-257, 48 h, read-out: Activity
UACC-62 [6] = assay: Growth inhibition of human UACC62 cells assessed as cell growth at 10^-4 M incubated for 48 hrs by sulforhodamine B assay relative to control; type: functional; conditions: UACC-62, 48 h, read-out: Activity
ACHN = assay: Growth inhibition of human ACHN cells assessed as cell growth at 10^-4 M incubated for 48 hrs by sulforhodamine B assay relative to control; type: functional; conditions: read-out: Activity
A549 = assay: Growth inhibition of human A549/ATCC cells incubated for 48 hrs by sulforhodamine B assay; type: functional; conditions: A549, 48 h
SNB-19 = assay: Growth inhibition of human SNB19 cells incubated for 48 hrs by sulforhodamine B assay; type: functional; conditions: SNB-19, 48 h
UACC-257 [7] = assay: Growth inhibition of human UACC257 cells incubated for 48 hrs by sulforhodamine B assay; type: functional; conditions: UACC-257, 48 h
RXF 393 = assay: Growth inhibition of human RXF393 cells incubated for 48 hrs by sulforhodamine B assay; type: functional; conditions: RXF 393, 48 h
MDA-MB-435 = assay: Cell cycle arrest in human MDA-MB-435 cells assessed as accumulation at G1-phase by propidium iodide staining based flow cytometry (reference value: 69.15%); type: functional
HL-60 = assay: Induction of apoptosis in human HL60 cells assessed as increase in caspase-9 expression by qRT-PCR method; type: functional, cell-based
Histone deacetylase 2 = Histone deacetylase 2 (Homo sapiens, UniProt Q92769); assay: Inhibition of human HDAC2 by ELISA
[8] = read-out: LC50 (the source's name)
[9] = read-out: pLC50 (the source's name) (converted)

Sequence of Histone deacetylase 2 (Q92769 whole entry): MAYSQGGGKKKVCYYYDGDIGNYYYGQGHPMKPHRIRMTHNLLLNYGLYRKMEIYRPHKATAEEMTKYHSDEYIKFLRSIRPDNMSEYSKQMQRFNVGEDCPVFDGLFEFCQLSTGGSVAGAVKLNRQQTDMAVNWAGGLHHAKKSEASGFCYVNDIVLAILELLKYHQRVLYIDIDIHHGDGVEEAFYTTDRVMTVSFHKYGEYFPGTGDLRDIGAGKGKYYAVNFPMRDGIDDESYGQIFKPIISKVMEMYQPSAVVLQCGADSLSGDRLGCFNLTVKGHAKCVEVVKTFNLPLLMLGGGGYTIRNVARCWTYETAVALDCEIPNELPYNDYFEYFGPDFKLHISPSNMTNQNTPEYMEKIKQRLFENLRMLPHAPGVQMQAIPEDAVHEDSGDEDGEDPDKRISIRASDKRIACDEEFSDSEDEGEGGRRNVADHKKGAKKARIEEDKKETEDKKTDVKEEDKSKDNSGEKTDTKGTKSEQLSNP

CCS/C(Nc1ccccc1)=C(\C#N)C(=O)Nc1ccc(OC)cc1
growth at 0.01 µM (UACC-257 [1]): 101%
growth at 0.01 µM (A498): 91%
growth at 0.01 µM (CAKI-1): 90%
growth at 0.1 µM (NCI-H322M): 92%
growth at 0.1 µM (NCI-H460): 98%
growth at 0.1 µM (HCT-116): 89%
growth at 0.1 µM (KM12): 98%
growth at 0.1 µM (IGROV-1): 101%
growth at 0.1 µM (DU-145 [2]): 96%
growth at 1 µM (HL-60(TB)): 86%
growth at 1 µM (RPMI-8226): 79%
growth at 1 µM (UACC-62 [3]): 71%
growth at 1 µM (OVCAR-3): 90%
growth at 1 µM (786-0): 83%
growth at 1 µM (DU-145 [4]): 93%
growth at 10 µM (CCRF-CEM): 11%
growth at 10 µM (OVCAR-5): 33%
growth at 10 µM (UO-31): 37%
growth at 10 µM (MDA-MB-231): 23%
growth at 100 µM (SK-MEL-2): 14%
growth at 100 µM (UACC-257 [5]): 37%
growth at 100 µM (UACC-62 [6]): 6%
growth at 100 µM (ACHN): 17%
GI50 (A549; read-out: GI50): 5.91 µM
CC50 (A549; [8]): > 100 µM
TGI (A549; read-out: TGI): > 100 µM
GI50 (A549; read-out: pGI50 (converted)): 5.89 µM
CC50 (A549; [9]): > 100 µM
TGI (A549; read-out: pTGI): > 100 µM
GI50 (SNB-19; read-out: GI50): 3.55 µM
CC50 (SNB-19; [8]): > 100 µM
TGI (SNB-19; read-out: TGI): > 100 µM
GI50 (SNB-19; read-out: pGI50 (converted)): 3.55 µM
CC50 (SNB-19; [9]): > 100 µM
TGI (SNB-19; read-out: pTGI): > 100 µM
GI50 (UACC-257 [7]; read-out: GI50): 21.2 µM
CC50 (UACC-257 [7]; [8]): > 100 µM
TGI (UACC-257 [7]; read-out: TGI): > 100 µM
GI50 (UACC-257 [7]; read-out: pGI50 (converted)): 21.4 µM
CC50 (UACC-257 [7]; [9]): > 100 µM
TGI (UACC-257 [7]; read-out: pTGI): > 100 µM
GI50 (RXF 393; read-out: GI50): 2.24 µM
CC50 (RXF 393; [8]): > 100 µM
TGI (RXF 393; read-out: TGI): 7.86 µM
GI50 (RXF 393; read-out: pGI50 (converted)): 2.24 µM
CC50 (RXF 393; [9]): > 100 µM
TGI (RXF 393; read-out: pTGI (converted)): 7.94 µM
Activity (MDA-MB-435): 51.68%
Activity (HL-60): Active
IC50 (Histone deacetylase 2): 0.032 µM

CCS/C(Nc1ccccc1)=C(\C#N)C(=O)N/N=C\c1ccc(Cl)cc1Cl
growth at 0.01 µM (UACC-257 [1]): 94%
growth at 0.01 µM (A498): 91%
growth at 0.01 µM (CAKI-1): 94%
growth at 0.1 µM (NCI-H322M): 91%
growth at 0.1 µM (NCI-H460): 98%
growth at 0.1 µM (HCT-116): 92%
growth at 0.1 µM (KM12): 101%
growth at 0.1 µM (IGROV-1): 98%
growth at 0.1 µM (DU-145 [2]): 98%
growth at 1 µM (HL-60(TB)): 93%
growth at 1 µM (RPMI-8226): 92%
growth at 1 µM (UACC-62 [3]): 69%
growth at 1 µM (OVCAR-3): 90%
growth at 1 µM (786-0): 83%
growth at 1 µM (DU-145 [4]): 97%
growth at 10 µM (CCRF-CEM): 16%
growth at 10 µM (OVCAR-5): 45%
growth at 10 µM (UO-31): 43%
growth at 10 µM (MDA-MB-231): 32%
growth at 100 µM (SK-MEL-2): -9%
growth at 100 µM (UACC-257 [5]): 35%
growth at 100 µM (UACC-62 [6]): 12%
growth at 100 µM (ACHN): 29%
GI50 (A549; read-out: GI50): 4.63 µM
CC50 (A549; [8]): > 100 µM
TGI (A549; read-out: TGI): > 100 µM
GI50 (A549; read-out: pGI50 (converted)): 4.68 µM
CC50 (A549; [9]): > 100 µM
TGI (A549; read-out: pTGI): > 100 µM
GI50 (SNB-19; read-out: GI50): 4.17 µM
CC50 (SNB-19; [8]): > 100 µM
TGI (SNB-19; read-out: TGI): > 100 µM
GI50 (SNB-19; read-out: pGI50 (converted)): 4.17 µM
CC50 (SNB-19; [9]): > 100 µM
TGI (SNB-19; read-out: pTGI): > 100 µM
GI50 (UACC-257 [7]; read-out: GI50): 25.7 µM
CC50 (UACC-257 [7]; [8]): > 100 µM
TGI (UACC-257 [7]; read-out: TGI): > 100 µM
GI50 (UACC-257 [7]; read-out: pGI50 (converted)): 25.7 µM
CC50 (UACC-257 [7]; [9]): > 100 µM
TGI (UACC-257 [7]; read-out: pTGI): > 100 µM
GI50 (RXF 393; read-out: GI50): 2.06 µM
CC50 (RXF 393; [8]): > 100 µM
TGI (RXF 393; read-out: TGI): 8.65 µM
GI50 (RXF 393; read-out: pGI50 (converted)): 2.04 µM
CC50 (RXF 393; [9]): > 100 µM
TGI (RXF 393; read-out: pTGI (converted)): 8.71 µM
Activity (MDA-MB-435): 61.56%
Activity (HL-60): Active
IC50 (Histone deacetylase 2): 0.02 µM
